# Source: PubChem BioAssay (NCI)
#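 Dose response: 5 concentrations. Exposure: 48 h. Format: 96-well plates. Endpoint: linear interpolation; highest concentration if not reached. TGI marks complete inhibition of growth.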
# Legend:
# Assay in all cases: NCI anticancer screen, dose series, 48 h
# HT29 colon = tested on: HT29 colon
# SW-620 colon = tested on: SW-620 colon
# TK-10 renal = tested on: TK-10 renal
# MDA-N = tested on: MDA-N
# NCI-H522 lung = tested on: NCI-H522 lung
# A549 NSCLC = tested on: A549 NSCLC
# A498 renal = tested on: A498 renal
# HCC-2998 colon = tested on: HCC-2998 colon
# SNB-19 CNS = tested on: SNB-19 CNS
# HOP-62 NSCLC = tested on: HOP-62 NSCLC
# NCI-H23 lung = tested on: NCI-H23 lung
# MDA-MB-435 = tested on: MDA-MB-435
# UACC-257 melanoma = tested on: UACC-257 melanoma
# HS 578T breast = tested on: HS 578T breast
# SK-OV-3 ovarian = tested on: SK-OV-3 ovarian
# LOX IMVI melanoma = tested on: LOX IMVI melanoma
# MOLT-4 leukemia = tested on: MOLT-4 leukemia
# COLO 205 colon = tested on: COLO 205 colon
# UO-31 renal = tested on: UO-31 renal
# HCT-15 colon = tested on: HCT-15 colon
# CCRF-CEM leukemia = tested on: CCRF-CEM leukemia
# ACHN renal = tested on: ACHN renal
# PC-3 prostate = tested on: PC-3 prostate
# NCI-H460 lung = tested on: NCI-H460 lung
# IGROV1 ovarian = tested on: IGROV1 ovarian
# UACC-62 melanoma = tested on: UACC-62 melanoma
# BT-549 breast = tested on: BT-549 breast
# NCI/ADR-RES ovarian = tested on: NCI/ADR-RES ovarian
# DU-145 prostate = tested on: DU-145 prostate
# MCF7 breast = tested on: MCF7 breast
# U251 CNS = tested on: U251 CNS
# HL-60(TB) leukemia = tested on: HL-60(TB) leukemia
# NCI-H226 lung = tested on: NCI-H226 lung
# SN12C renal = tested on: SN12C renal
# SK-MEL-28 melanoma = tested on: SK-MEL-28 melanoma
# T-47D breast = tested on: T-47D breast
# 786-0 renal = tested on: 786-0 renal
# RXF 393 renal = tested on: RXF 393 renal
# HCT-116 colon = tested on: HCT-116 colon
# K-562 leukemia = tested on: K-562 leukemia
# RPMI-8226 leukemia = tested on: RPMI-8226 leukemia
# OVCAR-8 ovarian = tested on: OVCAR-8 ovarian
# SR leukemia = tested on: SR leukemia
# OVCAR-4 ovarian = tested on: OVCAR-4 ovarian
# MDA-MB-231 breast = tested on: MDA-MB-231 breast
# M14 melanoma = tested on: M14 melanoma
# EKVX NSCLC = tested on: EKVX NSCLC
# SF-268 CNS = tested on: SF-268 CNS
# KM12 colon = tested on: KM12 colon
# HOP-92 NSCLC = tested on: HOP-92 NSCLC
# MALME-3M melanoma = tested on: MALME-3M melanoma
# SK-MEL-2 melanoma = tested on: SK-MEL-2 melanoma
# CAKI-1 renal = tested on: CAKI-1 renal
# SF-295 CNS = tested on: SF-295 CNS
# OVCAR-5 ovarian = tested on: OVCAR-5 ovarian
# SK-MEL-5 melanoma = tested on: SK-MEL-5 melanoma
# OVCAR-3 ovarian = tested on: OVCAR-3 ovarian
# SNB-75 CNS = tested on: SNB-75 CNS
# SF-539 CNS = tested on: SF-539 CNS
smiles,measurement,setting,value
N#CC(C#N)=C1C(C#N)=C(N)NC12OCCO2,TGI,HT29 colon,> 100 µM
same,TGI,SW-620 colon,> 100 µM
same,TGI,TK-10 renal,> 100 µM
same,TGI,MDA-N,> 100 µM
same,TGI,NCI-H522 lung,> 100 µM
same,TGI,A549 NSCLC,> 100 µM
same,TGI,A498 renal,> 100 µM
same,TGI,HCC-2998 colon,> 100 µM
same,TGI,SNB-19 CNS,> 100 µM
same,TGI,HOP-62 NSCLC,> 100 µM
same,TGI,NCI-H23 lung,> 100 µM
same,TGI,MDA-MB-435,> 100 µM
same,TGI,UACC-257 melanoma,> 100 µM
same,TGI,HS 578T breast,> 100 µM
same,TGI,SK-OV-3 ovarian,> 100 µM
same,TGI,LOX IMVI melanoma,> 100 µM
same,TGI,MOLT-4 leukemia,> 100 µM
same,TGI,COLO 205 colon,> 100 µM
same,TGI,UO-31 renal,> 100 µM
same,TGI,HCT-15 colon,> 100 µM
same,TGI,CCRF-CEM leukemia,> 100 µM
same,TGI,ACHN renal,> 100 µM
same,TGI,PC-3 prostate,> 100 µM
same,TGI,NCI-H460 lung,> 100 µM
same,TGI,IGROV1 ovarian,> 100 µM
same,TGI,UACC-62 melanoma,> 100 µM
same,TGI,BT-549 breast,> 100 µM
same,TGI,NCI/ADR-RES ovarian,> 100 µM
same,TGI,DU-145 prostate,> 100 µM
same,TGI,MCF7 breast,> 100 µM
same,TGI,U251 CNS,> 100 µM
same,TGI,HL-60(TB) leukemia,> 100 µM
same,TGI,NCI-H226 lung,> 100 µM
same,TGI,SN12C renal,> 100 µM
same,TGI,SK-MEL-28 melanoma,> 100 µM
same,TGI,T-47D breast,> 100 µM
same,TGI,786-0 renal,> 100 µM
same,TGI,RXF 393 renal,> 100 µM
same,TGI,HCT-116 colon,> 100 µM
same,TGI,K-562 leukemia,> 100 µM
same,TGI,RPMI-8226 leukemia,> 100 µM
same,TGI,OVCAR-8 ovarian,> 100 µM
same,TGI,SR leukemia,> 100 µM
same,TGI,OVCAR-4 ovarian,> 100 µM
same,TGI,MDA-MB-231 breast,> 100 µM
same,TGI,M14 melanoma,> 100 µM
same,TGI,EKVX NSCLC,> 100 µM
same,TGI,SF-268 CNS,> 100 µM
same,TGI,KM12 colon,> 100 µM
same,TGI,HOP-92 NSCLC,> 100 µM
same,TGI,MALME-3M melanoma,> 100 µM
same,TGI,SK-MEL-2 melanoma,> 100 µM
same,TGI,CAKI-1 renal,> 100 µM
same,TGI,SF-295 CNS,> 100 µM
same,TGI,OVCAR-5 ovarian,> 100 µM
same,TGI,SK-MEL-5 melanoma,> 100 µM
COc1ccc2c(c1)C(N)=C(c1ccccc1)C2=O,TGI,HT29 colon,> 100 µM
same,TGI,SW-620 colon,> 100 µM
same,TGI,TK-10 renal,> 100 µM
same,TGI,MDA-N,> 100 µM
same,TGI,NCI-H522 lung,> 100 µM
same,TGI,A549 NSCLC,> 100 µM
same,TGI,A498 renal,> 100 µM
same,TGI,HCC-2998 colon,> 100 µM
same,TGI,SNB-19 CNS,> 100 µM
same,TGI,HOP-62 NSCLC,> 100 µM
same,TGI,NCI-H23 lung,> 100 µM
same,TGI,OVCAR-3 ovarian,> 100 µM
same,TGI,SNB-75 CNS,70 µM
same,TGI,MDA-MB-435,> 100 µM
same,TGI,UACC-257 melanoma,> 100 µM
same,TGI,HS 578T breast,56.3 µM
same,TGI,SK-OV-3 ovarian,> 100 µM
same,TGI,LOX IMVI melanoma,> 100 µM
same,TGI,MOLT-4 leukemia,> 100 µM
same,TGI,COLO 205 colon,> 100 µM
same,TGI,HCT-15 colon,> 100 µM
same,TGI,CCRF-CEM leukemia,> 100 µM
same,TGI,ACHN renal,> 100 µM
same,TGI,PC-3 prostate,> 100 µM
same,TGI,SF-539 CNS,> 100 µM
same,TGI,NCI-H460 lung,> 100 µM
same,TGI,IGROV1 ovarian,> 100 µM
same,TGI,UACC-62 melanoma,> 100 µM
same,TGI,BT-549 breast,> 100 µM
same,TGI,NCI/ADR-RES ovarian,> 100 µM
same,TGI,DU-145 prostate,> 100 µM
same,TGI,MCF7 breast,> 100 µM
same,TGI,U251 CNS,> 100 µM
same,TGI,HL-60(TB) leukemia,> 100 µM
same,TGI,NCI-H226 lung,> 100 µM
same,TGI,SN12C renal,> 100 µM
same,TGI,SK-MEL-28 melanoma,> 100 µM
same,TGI,T-47D breast,> 100 µM
same,TGI,786-0 renal,> 100 µM
same,TGI,HCT-116 colon,> 100 µM
same,TGI,RPMI-8226 leukemia,> 100 µM
same,TGI,OVCAR-8 ovarian,> 100 µM
same,TGI,SR leukemia,> 100 µM
same,TGI,OVCAR-4 ovarian,> 100 µM
same,TGI,MDA-MB-231 breast,> 100 µM
same,TGI,M14 melanoma,> 100 µM
same,TGI,EKVX NSCLC,> 100 µM
same,TGI,SF-268 CNS,> 100 µM
same,TGI,KM12 colon,> 100 µM
same,TGI,HOP-92 NSCLC,> 100 µM
same,TGI,MALME-3M melanoma,> 100 µM
same,TGI,SK-MEL-2 melanoma,> 100 µM
same,TGI,CAKI-1 renal,> 100 µM
same,TGI,SF-295 CNS,> 100 µM
same,TGI,OVCAR-5 ovarian,> 100 µM
same,TGI,SK-MEL-5 melanoma,> 100 µM
